Data on 27 molecules can be found in patent publication US9242981B2, “Fused pyrazole derivatives as novel ERK inhibitors” (Merck Sharp & Dohme Corp., priority 2010, dated 2016).

pIC50: −log10 of the molar value.

For the test, the target named is Mouse ERK2 protein (Mus musculus (Mouse), UniProt P63085). Briefly: Coupled MEK1/ERK2 IMAP assay or Active ERK2 IMAP assay. It counts as biochemical. Conditions: Table 1, class symbols, 30 μM ATP.
Sequence of Mouse ERK2 protein (P63085 whole entry): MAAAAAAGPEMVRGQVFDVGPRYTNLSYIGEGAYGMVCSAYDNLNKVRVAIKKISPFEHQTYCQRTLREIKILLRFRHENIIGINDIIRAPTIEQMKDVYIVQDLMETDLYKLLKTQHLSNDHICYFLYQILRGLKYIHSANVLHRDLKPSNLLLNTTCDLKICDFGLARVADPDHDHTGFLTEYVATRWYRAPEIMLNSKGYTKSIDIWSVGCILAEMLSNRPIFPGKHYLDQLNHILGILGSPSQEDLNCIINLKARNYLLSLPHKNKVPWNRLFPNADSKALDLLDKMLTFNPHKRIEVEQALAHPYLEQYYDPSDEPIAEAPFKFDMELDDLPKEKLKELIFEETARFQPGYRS
In the case of `COc1ccc(-c2n[nH]c3c2CN(C(=O)N[C@@H]2CCCN(Cc4c(F)cccc4F)C2)CC3)cc1F` [Compound 131, N-[1-[(2,6-difluorophenyl)-methyl]-3(R)-piperidinyl]-3-(3-fluoro-4-methoxyphenyl)-1,4,6,7-tetrahydro-5H-pyrazolo[4,3-c]pyridine-5-carboxamide], the pIC50 (in general, the negative decadic logarithm of the IC50, by convention in mol/L) was 7.00 to 7.68.

Molecule `COc1ccc(-c2n[nH]c3c2CN(C(=O)N[C@@H]2CCCN(Cc4c(F)cccc4F)C2)CC3)cn1` [Compound 132, N-[1-[(2,6-difluorophenyl)-methyl]-3(R)-piperidinyl]-1,4,6,7-tetrahydro-3-(6-Methoxy-3-pyridinyl)-5H-pyrazolo[4,3-c]pyridine-5-carboxamide] showed a pIC50 of 7.00 to 7.68.

`Cn1cc2cc(-c3n[nH]c4c3CN(C(=O)N[C@@H]3CCCN(Cc5c(F)cccc5F)C3)CC4)ccc2n1` [Compound 133, N[1-[(2,6-difluorophenyl)-methyl]-3(R)-piperidinyl]-1,4,6,7-tetrahydro-3-(2-methyl-2H-indazol-5-yl)-5H-pyrazolo[4,3-c]pyridine-5-carboxamide] showed a pIC50 of 7.00 to 7.68.

Regarding `Cn1ncc2cc(-c3n[nH]c4c3CN(C(=O)N[C@@H]3CCCN(Cc5c(F)cccc5F)C3)CC4)ccc21` [Compound 134, N-[1-[(2,6-difluorophenyl)-methyl]-3(R)-piperidinyl]-1,4,6,7-tetrahydro-3-(1-methyl-1H-indazol-5-yl)-5H-pyrazolo[4,3-c]pyridine-5-carboxamide], the pIC50 was 7.00 to 7.68.

`COc1cccc(F)c1CN1CCC(F)C(NC(=O)N2CCc3[nH]nc(-c4ccnc(C)c4)c3C2)C1` (stereo not drawn) [Compound 135, N-[4-fluoro-1-[(2-fluoro-6-methoxyphenyl)methyl]-3-piperidinyl]-1,4,6,7-tetrahydro-3-(2-methyl-4-pyridinyl)-5H-pyrazolo[4,3-c]pyridine-5-carboxamide] showed a negative logarithm of the IC50 (pIC50) of more than 7.70.

Consider `O=C(N[C@@H]1CCCN(Cc2csc3ccccc23)C1)N1CCc2[nH]nc(-c3ccc(-c4ccccc4)nc3)c2C1` [Compound 136, N-[1-(benzo[b]thien-3-ylmethyl)-3(R)-piperidinyl]-1,4,6,7-tetrahydro-3-(6-phenyl-3-pyridinyl)-5H-pyrazolo[4,3-c]pyridine-5-carboxamide], for which the pIC50 is 6.00 to 7.00.

Take `O=C(N[C@@H]1CCCN(Cc2c(F)cccc2F)C1)N1CCc2[nH]nc(-c3ccc(-c4ccccc4)nc3)c2C1` [Compound 137, N-[1-[(2,6-difluorophenyl)-methyl]-3(R)-piperidinyl]-1,4,6,7-tetrahydro-3-(6-phenyl-3-pyridinyl)-5H-pyrazolo[4,3-c]pyridine-5-carboxamide]: the pIC50 is 6.00 to 7.00.

Turning to `COc1cccc(F)c1CN1CCC[C@@H](NC(=O)N2CCc3[nH]nc(-c4ccc(-c5ccccc5)nc4)c3C2)C1` [Compound 138, N-[1-[(2-fluoro-6-methoxyphenyl)methyl]-3(R)-piperidinyl]-1,4,6,7-tetrahydro-3-(6-phenyl-3-pyridinyl)-5H-pyrazolo[4,3-c]pyridine-5-carboxamide], the pIC50 is 6.00 to 7.00.

The molecule `Cc1cccc(C)c1CN1CC[C@@H](NC(=O)N2CCc3[nH]nc(-c4ccc(-c5ccccc5)nc4)c3C2)C1` [Compound 139, N-[1-[(2,6-dimethylphenyl)-methyl]-3(R)-pyrrolidinyl]-1,4,6,7-tetrahydro-3-(6-phenyl-3-pyridinyl)-5H-pyrazolo[4,3-c]pyridine-5-carboxamide] had a pIC50 of 6.00 to 7.00.

The molecule `Cn1ncc2cc(-c3n[nH]c4c3CN(C(=O)NC3CCC5CCC3N5Cc3ccccc3F)CC4)ccc21` (stereo not drawn) [Compound 140, N-[8-[(2-fluorophenyl)methyl]-8-azabicyclo[3.2.1]oct-2-yl]-1,4,6,7-tetrahydro-3-(1-methyl-1H-indazol-5-yl)-5H-pyrazolo[4,3-c]pyridine-5-carboxamide] showed a pIC50 of more than 7.70.

`Cc1nc2cc(-c3n[nH]c4c3CN(C(=O)N[C@@H]3CCCN(Cc5cccc6cnccc56)C3)CC4)ccc2o1` [Compound 142, 1,4,6,7-tetrahydro-N-[1-(5-isoquinolinylmethyl)-3(R)-pipendinyl]-3-(2-methyl-5-benzoxazolyl)-5H-pyrazolo[4,3-c]pyridine-5-carboxamide] had a pIC50 of 6.00 to 7.00.

In the case of `Cc1nc2cc(-c3n[nH]c4c3CN(C(=O)N[C@@H]3CCCN(Cc5ccnc6ccccc56)C3)CC4)ccc2o1` [Compound 144, 1,4,6,7-tetrahydro-3-(2-methyl-5-benzoxazolyl)-N-[1-(4-quinolinylmethyl)-3(R)-piperidinyl]-5H-pyrazolo[4,3-c]pyridine-5-carboxamide], the pIC50 was 6.00 to 7.00.

As for `Cc1nc2cc(-c3n[nH]c4c3CN(C(=O)N[C@@H]3CCCN(Cc5cccc6ncccc56)C3)CC4)ccc2o1` [Compound 146, 1,4,6,7-tetrahydro-3-(2-methyl-5-benzoxazolyl)-N-[1-(5-quinolinylmethyl)-3(R)-piperidinyl]-5H-pyrazolo[4,3-c]pyridine-5-carboxamide], the pIC50 was 7.00 to 7.68.

`Cc1nc2cc(-c3n[nH]c4c3CN(C(=O)N[C@@H]3CCCN(Cc5cn(C)c6ccccc56)C3)CC4)ccc2o1` [Compound 148, 1,4,6,7-tetrahydro-3-(2-methyl-5-benzoxazolyl)-N-[1-[(1-methyl-1H-indol-3-yl)methyl]-3(R)-piperidinyl]-5H-pyrazolo[4,3-c]pyridine-5-carboxamide] gave a pIC50 of 7.00 to 7.68.

The molecule `COc1cccc(F)c1CN1CCC(F)C(NC(=O)N2CCc3[nH]nc(-c4ccc5nccn5c4)c3C2)C1` (stereo not drawn) [Compound 150, N-[4-fluoro-1-[(2-fluoro-6-methoxyphenyl)methyl]-3-piperidinyl]-1,4,6,7-tetrahydro-3-imidazo[1,2-a]pyridin-6-yl-5H-pyrazolo[4,3-c]pyridine-5-carboxamide] showed a pIC50 of more than 7.70.

As to `Cc1nc2cc(-c3n[nH]c4c3CN(C(=O)N[C@@H]3CCCN(Cc5csc6ccccc56)C3)CC4)ccc2o1` [Compound 152, N-[1-(benzo[b]thien-3-ylmethyl)-3(R)-piperidinyl]-1,4,6,7-tetrahydro-3-(2-methyl-5-benzoxazolyl)-5H-pyrazolo[4,3-c]pyridine-5-carboxamide], the pIC50 was more than 7.70.

With `Cc1nc2cc(-c3n[nH]c4c3CN(C(=O)N[C@@H]3CCCN(Cc5ccc6ccccc6c5)C3)CC4)ccc2o1` [Compound 154, 1,4,6,7-tetrahydro-3-(2-methyl-5-benzoxazolyl)-N-[1-(2-naphthalenylmethyl)-3(R)-piperidinyl]-5H-pyrazolo[4,3-c]pyridine-5-carboxamide], the pIC50 was more than 7.70.

In turn, `COc1cccc(F)c1CN1[C@H]2CC[C@H](NC(=O)N3CCc4[nH]nc(-c5ccnc(C)c5)c4C3)[C@@H]1CC2` [Compound 160, N-[endo-8-[(2-fluoro-6-methoxyphenyl)methyl]-8-azabicyclo[3.2.1]oct-2-yl]-1,4,6,7-tetrahydro-3-(2-methyl-4-pyridinyl)-5H-pyrazolo[4,3-c]pyridine-5-carboxamide] had a pIC50 of 6.00 to 7.00.

`COc1cccc(F)c1CN1[C@H]2CC[C@@H](NC(=O)N3CCc4[nH]nc(-c5ccnc(C)c5)c4C3)[C@@H]1CC2` [Compound 162, N-[exo-8-[(2-fluoro-6-methoxyphenyl)methyl]-8-azabicyclo[3.2.1]oct-2-yl]-1,4,6,7-tetrahydro-3-(2-methyl-4-pyridinyl)-5H-pyrazolo[4,3-c]pyridine-5-carboxamide] showed a pIC50 of 7.00 to 7.68.

`Cc1cc(-c2n[nH]c3c2CN(C(=O)N[C@H]2CC[C@H]4CC[C@@H]2N4Cc2c(F)cccc2F)CC3)ccn1` [Compound 164, N-[endo-8-[(2,6-difluorophenyl)methyl]-8-azabicyclo[3.2.1]oct-2-yl]-1,4,6,7-tetrahydro-3-(2-methyl-4-pyridinyl)-5H-pyrazolo[4,3-c]pyridine-5-carboxamide] gave a pIC50 of 6.00 to 7.00.

As for `Cc1cc(-c2n[nH]c3c2CN(C(=O)N[C@H]2CC[C@H]4CC[C@@H]2N4Cc2ccccc2F)CC3)ccn1` [Compound 166, N-[endo-8-[(2-fluorophenyl)methyl]-8-azabicyclo[3.2.1]oct-2-yl]-1,4,6,7-tetrahydro-3-(2-methyl-4-pyridinyl)-5H-pyrazolo[4,3-c]pyridine-5-carboxamide], the pIC50 was 6.00 to 7.00.

In turn, `Cc1cc(-c2n[nH]c3c2CN(C(=O)N[C@@H]2CC[C@H]4CC[C@@H]2N4Cc2ccccc2F)CC3)ccn1` [Compound 168, N-[exo-8-[(2-fluorophenyl)methyl]-8-azabicyclo[3.2.1]oct-2-yl]-1,4,6,7-tetrahydro-3-(2-methyl-4-pyridinyl)-5H-pyrazolo[4,3-c]pyridine-5-carboxamide] had a pIC50 of more than 7.70.

`COc1cccc(F)c1CN1CCC[C@@H](NC(=O)N2CCc3[nH]nc(-c4ccc5nc(C)sc5c4)c3C2)C1` [Compound 170, N-[1-[(2-fluoro-6-methoxyphenyl)methyl]-3(R)-piperidinyl]-1,4,6,7-tetrahydro-3-(2-methyl-6-benzothiazolyl)-5H-pyrazolo[4,3-c]pyridine-5-carboxamide] gave a pIC50 of more than 7.70.

`Cc1nc2ccc(-c3n[nH]c4c3CN(C(=O)N[C@@H]3CCCN(Cc5c(F)cccc5F)C3)CC4)cc2s1` [Compound 172, N-[1-[(2,6-difluorophenyl)methyl]-3(R)-piperidinyl]-1,4,6,7-tetrahydro-3-(2-methyl-6-benzothiazolyl)-5H-pyrazolo[4,3-c]pyridine-5-carboxamide] showed a negative logarithm of the IC50 (pIC50) of more than 7.70.

For `O=C(N[C@@H]1CCCN(CCc2ccccc2)C1)N1CCc2[nH]nc(-c3ccncc3)c2C1` [Compound 173, 1,4,6,7-tetrahydro-N-[1-(2-phenylethyl)-3(R)-piperidinyl]-3-(4-pyridinyl)-5H-pyrazolo[4,3-c]pyridine-5-carboxamide], the negative-log IC50 (pIC50) is 7.00 to 7.68.

For `Cc1nc2ccc(-c3n[nH]c4c3CN(C(=O)N[C@@H]3CCCN(Cc5csc6ccccc56)C3)CC4)cc2s1` [Compound 174, N-[1-(benzo[b]thien-3-ylmethyl)-3(R)-piperidinyl]-1,4,6,7-tetrahydro-3-(2-methyl-6-benzothiazolyl)-5H-pyrazolo[4,3-c]pyridine-5-carboxamide], the negative logarithm of the IC50 (pIC50) is more than 7.70.

`Cc1nc2ccc(-c3n[nH]c4c3CN(C(=O)N[C@@H]3CCCN(Cc5coc6ccccc56)C3)CC4)cc2s1` [Compound 176, N-[1-(3-benzofuranylmethyl)-3(R)-piperidinyl]-1,4,6,7-tetrahydro-3-(2-methyl-6-benzothiazolyl)-5H-pyrazolo[4,3-c]pyridine-5-carboxamide] showed a pIC50 of more than 7.70.
